# Assay results taken from patent US20090124659A1, “Combination therapy using 1-aminocyclohexane derivatives and acetylcholinesterase and inhibitors” (priority 2002, published 2009).
# Counter-ions that a name gives are not always drawn.
# Key:
# [1] = system: human neuroblastoma cells; settings: in the absence of any detectable cellular damage or toxicity; cited from earlier work
# [2] = system: human neuroblastoma cells SK-N-SH; experiment: Cell viability and toxicity, MTT and LDH assays; settings: memantine 1-4 μM
# [3] = system: human neuroblastoma cells SK-N-SH; experiment: APP processing in cultured SK-N-SH cells (Western immunoblotting or ELISA); assay type: cell-based; settings: memantine 1-4 μM
# Experimental: NMDA receptors have been also implicated in the signalling cascades affecting or affected by APP processing. […] The present inventor and co-workers have studied the effect of memantine (NMDA receptor antagonist) on the processing of APP in cultured human neuroblastoma cells SK-N-SH. Cells were treated with memantine (1-4 μM) or vehicle, and the levels of sAPP and βAP40 in the conditioned media and the total intracellular APP were measured by Western immunoblotting or ELISA using specific antibodies.
# cytochrome P450 system = settings: in vitro studies; cited from earlier work
# [4] = cited from earlier work
# healthy young subjects = settings: single 10 mg memantine alone or with multiple daily doses of 10 mg donepezil
# clinical = settings: both, human, plasma, po
# [5] = humans; cited from earlier work
# [6] = system: patients with moderate-to-severe AD; settings: 24 weeks; groups of 202 and 201
# [7] = system: patients with moderate-to-severe AD; settings: Week 24; memantine 20 mg/day or placebo added to stable donepezil
# [8] = system: patients with moderate-to-severe AD; settings: Week 24; memantine 20 mg/day or placebo added to stable donepezil; remark: listed apart in the source
# [9] = 5 mg/day for 28 days in healthy subjects; cited from earlier work
# [10] = system: patients with moderate-to-severe AD; settings: Week 24; memantine 20 mg/day or placebo added to stable donepezil; remark: listed apart in the source
smiles,measurement,setting,value
"Cl.Nc1c2c(nc3ccccc13)CCCC2 [tacrine, 1,2,3,4-tetrahydro-9-aminoacridine hydrochloride]","release of sAPPα, total βAP, βAP40 and βAP42",[1],reduce
"CC12CC3CC(C)(C1)CC(N)(C3)C2 [memantine, 1-amino-3,5-dimethyl adamantane]",cell viability and toxicity (MTT and LDH assays),[2],not affected
same,levels of total intracellular APP,[3],without affecting
same,sAPP level in the conditioned media,[3],decrease
same,βAP40 level in the conditioned media,[3],decrease
same,potential of drug interactions with drugs metabolized via the cytochrome P450 system,cytochrome P450 system,low potential
same,"dose recovered, mainly in the urine",[4]; after administration of 14C memantine,84%
same,absolute bioavailability,"[4]; in vivo, po",approximately 100%
same,half-life,[4]; in vivo,60 to 80 h
same,safety and tolerability,healthy young subjects,safe and well-tolerated
same,Cmax,clinical,13 ng/mL
same,Cmax,clinical; 10 mg,12.8 ng/mL
same,Tmax,clinical; 10 mg,6.5 h
same,therapeutically effective circulating concentration,[5],1 µM
"COc1cc2c(cc1OC)C(=O)C(CC1CCN(Cc3ccccc3)CC1)C2 (racemic) [donepezil, (R,S)-1-benzyl-4-[(5,6-dimethoxy-1-indanon)-2yl]-methylpiperidine hydrochloride]","Agitation, %",[6],(11.9) %
same,"Confusion, %",[6],(2.0) %
same,"Constipation, %",[6],(1.5) %
same,"Coughing, %",[6],(1.0) %
same,"Depression, %",[6],(3.0) %
same,"Diarrhoea, %",[6],(8.5) %
same,"Dizziness, %",[6],(8.0) %
same,"Fall, %",[6],(7.0) %
same,"Fatigue, %",[6],(3.5) %
same,"Gait abnormal, %",[6],(1.0) %
same,"Headache, %",[6],(2.5) %
same,"Hypertension, %",[6],(1.5) %
same,"Inflicted injury, %",[6],(8.0) %
same,"Influenza-like symptoms, %",[6],(6.5) %
same,"Oedema peripheral, %",[6],(4.0) %
same,"Pain, %",[6],(0.5) %
same,"Pat. with any AE, %",[6],(71.6) %
same,"Somnolence, %",[6],(3.5) %
same,"Upper resp. tract infection, %",[6],(6.5) %
same,"Urinary incontinence, %",[6],(3.0) %
same,"Urinary tract infection, %",[6],(5.0) %
same,"Vomiting, %",[6],(3.0) %
same,"CIBIC-Plus at Endpoint (LOCF), LS mean (SD)",[7],4.7 (1.05)
same,"SIB, change from Baseline to Endpoint (LOCF), LS mean change (SE)",[8],−2.5 (0.69)
same,time of peak plasma concentrations,[9],approximately 3 hours
same,"ADCS-ADL, change from Baseline to Endpoint (LOCF), LS mean change (SE)",[10],−3.4 (0.51)
